This is an account of results in patent publication US6676950B2, “Neurokinin receptor antagonists and methods of use thereof for inhibiting HIV infection” (The Children's Hospital of Philadelphia, priority 2001, dated 2004).

One assay relates to SP mRNA. As to the kind of experiment: SP mRNA expression in MDM by real-time RT-PCR. The conditions noted are these: 4 hours; percentage of untreated MDM. It counts as cell-based, human. Here is the method: FIG. 17. A graph showing the effect of CP-96,345 on SP mRNA expression in MDM. The MDM were incubated with (+) or without (−) the NK-1R antagonist at the indicated concentration for 4 hours. The SP mRNA levels were determined by a real-time RT-PCR. The SP mRNA levels in the CP-96,345 treated MDM are expressed as a percentage of that in untreated MDM which are defined as 100%.
The effect of CP-96,345 on SP mRNA expression in MDM was also determined. The MDM were incubated with (+) or without (−) the NK-1R antagonist at the indicated concentration for 4 hours. The SP mRNA levels were determined by a real-time RT-PCR.

The test system of another assay is HIV Bal strain. As to the kind of experiment: HIV-induced syncytia formation in MDM. It is filed as cell-based. The conditions noted are these: 10^−7M; 12 days after infection; light microscope. How it is done:
Syncytia formation: To study the effect of neuropeptide antagonists on HIV-induced syncytia formation in MDM, 7-day-cultured macrophages were incubated in the presence or absence of CP-96,345 (10^−7M) for 2 h and then infected with HIV Bal strain. MDM which were neither incubated with CP-96,345 nor infected with HIV were used as a cell culture control. The morphology of HIV-induced syncytia formation was observed and photographed by a light microscopy (X 400) 12 days after HIV infection.

In a further assay the test system is IL-6. As to the kind of experiment: LPS-stimulated IL-6 production in MDM by ELISA. The conditions noted are these: 10^−9 to 10^−7M; LPS 1 ng/ml; 24 h. It is filed as cell-based, human. How it is done:
In order to determine the role of CP-96,345 in the regulation of cytokine secretion, 7-day-cultured MDM were incubated with or without CP-96,345 (10^−9 to 10^−7M) and/or LPS (1 ng/ml) for 24 h. The culture supernatants were collected to determine TNF-A and IL-6 levels by ELISA. The ELISA kits were purchased from Endogen, Inc. (Woburn, Mass.).
A general note: In an ELISA, binding on a coated surface is turned into a signal by an enzyme label.

The subject of assay [1] is CD4, CXCR4 and CD14 receptors. As to the kind of experiment: Flow cytometry of CD4, CXCR4 and CD14 receptor expression on MDM. It counts as cell-based, human. The settings on record: incubated overnight (24 h); direct immunofluorescence. How it is done:
The cells were removed from the culture plate and then resuspended in 100 μl of phosphate-buffered saline (PBS). After incubation with 20 μl of either anti-CCR5-FITC or anti-CXCR4-FITC or anti-CD4-FITC or anti-CD14-FITC for 45 min at 4° C., the cells were washed twice with PBS and fixed with 1% paraformaldehyde in PBS. Fluorescein-conjugated control antibodies were isotype-matched IgG. Fluorescence was analyzed on an EPICS-Elite flow cytometer (Beckman-Coulter Electronics, Hialeah, Fla.).

With `COc1ccccc1CN[C@H]1C2CCN(CC2)[C@H]1C(c1ccccc1)c1ccccc1` [CP-96,345, [2S,3S)-cis-2-(diphenylmethyl)-N-[(2-methoxyphenyl)-methyl]-1-azabicyclo [[2.2.2]-octan-3-amine]], the “SP mRNA expression in MDM (real-time RT-PCR)” value with SP mRNA is “significantly inhibited”. For the same compound, the “giant syncytia formation induced by HIV Bal strain infection” value in the assay with HIV Bal strain is “failed to develop the giant syncytia”. In the assay on IL-6, the “IL-6 production in MDM” value is reported as “not affected”. Besides, in assay [1], the “CD4, CXCR4 and CD14 receptor expression on MDM” value is recorded as “only CCR5 expression was down-regulated”.
